For one test, the target named is Large T antigen (Simian virus 40, UniProt P03070). The test is classed as functional, Betapolyomavirus macacae.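 Note: Confirmatory-stage PubChem screen for compounds that inhibit SV40 T antigen.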
For test [1], the target named is T1, Bifunctional protein GlmU (Mycobacterium tuberculosis, UniProt P9WMN3).
T1 sequence (P9WMN3 whole entry): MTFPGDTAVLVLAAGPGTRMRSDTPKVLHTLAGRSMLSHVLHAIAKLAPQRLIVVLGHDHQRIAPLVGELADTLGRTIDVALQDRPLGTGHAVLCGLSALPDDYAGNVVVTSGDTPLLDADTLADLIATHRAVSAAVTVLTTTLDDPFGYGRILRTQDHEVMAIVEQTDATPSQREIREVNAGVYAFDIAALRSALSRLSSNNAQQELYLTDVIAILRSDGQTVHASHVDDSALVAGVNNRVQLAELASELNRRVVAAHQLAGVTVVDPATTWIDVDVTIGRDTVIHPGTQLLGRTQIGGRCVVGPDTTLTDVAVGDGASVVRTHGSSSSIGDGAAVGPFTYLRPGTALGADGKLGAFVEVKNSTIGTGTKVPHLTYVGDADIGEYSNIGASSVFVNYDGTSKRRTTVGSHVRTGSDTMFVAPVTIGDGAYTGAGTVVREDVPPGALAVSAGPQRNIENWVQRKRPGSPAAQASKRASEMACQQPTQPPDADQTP
The test is described as follows: Inhibitors of Mycobacterial Glucosamine-1-phosphate acetyl transferase (GlmU). Secondary screen. Further details: species or system Mycobacterium tuberculosis H37Rv.

A further test concerns the target Genome polyprotein (dengue virus type 2, UniProt P29990). The test is described as follows: Dengue-2 NS5 methyltransferase inhibitors, primary screen, biochemical, confirmation dose response (AID 588689). The test is classed as functional.
The target of test [2] is T2, Carboxy-terminal domain RNA polymerase II polypeptide A small phosphatase 1 (Homo sapiens, UniProt Q9GZU7).
T2 sequence (Q9GZU7 whole entry): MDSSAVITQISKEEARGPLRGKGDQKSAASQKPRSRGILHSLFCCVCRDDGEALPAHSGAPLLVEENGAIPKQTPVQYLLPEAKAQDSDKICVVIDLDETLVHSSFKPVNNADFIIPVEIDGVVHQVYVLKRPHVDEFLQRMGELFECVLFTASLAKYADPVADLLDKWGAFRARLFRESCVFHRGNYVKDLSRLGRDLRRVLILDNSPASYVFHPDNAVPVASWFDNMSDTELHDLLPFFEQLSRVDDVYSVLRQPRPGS
As to the kind of experiment: inhibitors of CTDSP1, concentration-response testing, biochemical assay, absorbance-based, actives from ultra-high-throughput screening (AID 540297). The test is classed as functional.

For a further test, the target named is T3, Mucolipin-3 (Homo sapiens, UniProt Q8TDD5).
T3 sequence (Q8TDD5 whole entry): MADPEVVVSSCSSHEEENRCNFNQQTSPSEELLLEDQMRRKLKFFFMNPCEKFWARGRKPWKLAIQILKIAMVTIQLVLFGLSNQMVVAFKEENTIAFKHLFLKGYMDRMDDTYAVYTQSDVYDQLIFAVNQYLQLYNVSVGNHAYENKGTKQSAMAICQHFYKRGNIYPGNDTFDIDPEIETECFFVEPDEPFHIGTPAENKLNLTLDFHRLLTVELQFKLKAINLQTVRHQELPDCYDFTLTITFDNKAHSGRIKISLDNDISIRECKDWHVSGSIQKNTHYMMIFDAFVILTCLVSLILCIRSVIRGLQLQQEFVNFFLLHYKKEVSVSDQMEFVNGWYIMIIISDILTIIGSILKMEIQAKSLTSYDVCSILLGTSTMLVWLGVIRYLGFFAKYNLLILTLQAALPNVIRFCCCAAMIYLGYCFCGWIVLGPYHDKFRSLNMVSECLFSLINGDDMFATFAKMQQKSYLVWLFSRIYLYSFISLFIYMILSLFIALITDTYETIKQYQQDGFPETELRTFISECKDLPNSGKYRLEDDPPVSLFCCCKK
The test is described as follows: Dose response cell-based high-throughput screening assay for agonists of the transient receptor potential channel ML3 (TRPML3). [Related pubchem assays: 1526, 1424, 1448 ]. The format is functional.

The next test concerns the target Ion channel NompC (Danio rerio, UniProt Q7T1G6). As to the kind of experiment: Fluorescence counterscreen assay for TRPML3 agonists: dose response cell-based high-throughput screening assay to identify agonists of the transient receptor potential channel N1 (TRPN1). [Related pubchem assays: 1526, 1424, 1448 ]. The test is classed as functional. On the technique in general: The purpose of a counterscreen is to sort out artefacts and off-target activity.

The target in the next test is T4, Estrogen receptor (Homo sapiens, UniProt P03372).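 Note: potency for inhibiting coactivator peptide recruitment to the receptor.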
T4 sequence (P03372 whole entry): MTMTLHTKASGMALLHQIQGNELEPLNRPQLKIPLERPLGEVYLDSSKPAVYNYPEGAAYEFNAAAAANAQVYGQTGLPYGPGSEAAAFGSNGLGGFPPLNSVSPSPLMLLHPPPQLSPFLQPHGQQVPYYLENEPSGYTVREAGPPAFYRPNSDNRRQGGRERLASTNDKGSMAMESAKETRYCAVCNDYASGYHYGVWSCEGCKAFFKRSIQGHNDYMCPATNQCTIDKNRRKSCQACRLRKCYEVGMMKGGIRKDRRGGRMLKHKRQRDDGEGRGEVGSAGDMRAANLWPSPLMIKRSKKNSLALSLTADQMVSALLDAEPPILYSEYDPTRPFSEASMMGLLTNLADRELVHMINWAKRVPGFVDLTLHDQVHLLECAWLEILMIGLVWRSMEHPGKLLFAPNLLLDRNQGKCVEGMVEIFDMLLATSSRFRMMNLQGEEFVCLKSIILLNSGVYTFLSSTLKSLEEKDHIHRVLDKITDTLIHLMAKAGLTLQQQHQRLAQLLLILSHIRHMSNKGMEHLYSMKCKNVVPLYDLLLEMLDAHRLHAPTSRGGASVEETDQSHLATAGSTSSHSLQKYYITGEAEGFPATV

In test [3] the test system is BJ. The test is described as follows: cytotoxicity toward BJ-TERT fibroblasts, dose response, cell-based, RAS-independent, luminescence (AID 1933). The test is classed as functional. To be noted: Homo sapiens.
The test system of test [4] is BJ. The test is described as follows: cells. The test is classed as functional, cell-based. To be noted: Homo sapiens.
The subject of test [5] is BJ. The test is described as follows: cytotoxicity toward BJ-TERT-LT-ST fibroblasts, dose response, cell-based, RAS-independent, luminescence (AID 1935).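 Note: BJ fibroblasts immortalized with TERT plus LT and ST oncogenes.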 The test is classed as functional. To be noted: Homo sapiens.
Test [6] is described as follows: cytotoxicity toward DRD oncogenic fibroblasts, dose response, cell-based, non-viral oncogenic, luminescence (AID 1934). The test is classed as functional. To be noted: Homo sapiens.
The subject of test [7] is BJ. The test is described as follows: cytotoxicity toward Ras-transformed BJeLR fibroblasts, dose response, cell-based, alamar blue fluorescence, cherrypicked samples (AID 2631).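 Note: confirmatory dose-response assay in RAS-dependent BJ fibroblasts engineered with TERT, LT and ST, with cytotoxicity read by fluorescence.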 The format is functional. To be noted: Homo sapiens.
Test [8] is described as follows: HeLa 2N DNA content increase, dose response, cell-based, IC50 (AID 1117349). The test is classed as functional.
A short description of test [9]: RKO cell viability reduction, dose response, CellTiter-Glo luminescence (AID 1117322). The format is functional. On the technique in general: Cellular ATP, detected with luciferase, serves as a proxy for viable cell number.
Test [10] in a line: cytotoxicity toward HCT116 cells – cell-based, CellTiter-Glo luminescence, IC50, dose response (AID 1117332). The format is functional. To be noted: HCT-116.
Test [11] is described as follows: SNU-C1 cell viability reduction, dose response, CellTiter-Glo luminescence (AID 1117323). The test is classed as functional, cell-based.
A short description of test [12]: HeLa 4N DNA content increase, dose response, cell-based, IC50 (AID 1117351). The test is classed as functional.
The nature of test [13]: cytotoxicity toward HT-29 cells – cell-based, CellTiter-Glo luminescence, IC50, dose response (AID 1117330). The format is functional.
The nature of test [14]: CellTiter-Glo luminescent dose response of DLD-1 viability loss (AID 1117352). The test is classed as functional.
Test [15] is described as follows: HCT116 cell viability decrease, GSK3B pretreatment – CellTiter-Glo, IC50, dose response (AID 1117339). The format is functional. To be noted: HCT-116.
Test [16] is described as follows: inhibitors of HIV Env-driven cell fusion, dose response, cherry-pick (AID 652057). The format is functional, cell-based.
A further test addresses Paired box protein Pax-8 (Homo sapiens, UniProt Q06710). The test is described as follows: inhibitors of PAX8-driven TPO luciferase reporter, dose response, RMG-I cells, cherry-pick (AID 687027).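 Note: luciferase reporter driven by Pax8 target thyroperoxidase promoter measured by SteadyGlo luminescence.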 The format is functional, cell-based.
Test [17] in a line: inhibitors of clade B AD8 Env fusion, dose response, cell-based, cherry-pick (AID 652062).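 Note: luciferase signal from cell-cell fusion driven by HIV-1 clade B AD8 Env; potency is for inhibitors of fusion seen as a drop in luminescence.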 The test is classed as functional.
Test [18] is described as follows: NIH:OVCAR-3 ovarian cancer cell cytotoxicity, dose response, PAX8 inhibitor project, plate reader, dry powder samples (AID 743044). The test is classed as functional, cell-based.
A short description of test [19]: non-specific cell cytotoxicity, dose response, cytotoxicity control for PAX8 inhibitor project, plate reader, dry powder samples (AID 743021). The test is classed as functional, cell-based.
The nature of test [20]: M. tuberculosis H37Rv growth inhibitors, H37Rv strain (AID 1626). The test is classed as functional.
Test [21] addresses Induced myeloid leukemia cell differentiation protein Mcl-1 (Homo sapiens, UniProt Q07820). The format is functional.
Test [22] can be described thus: Luminescence Cell-Based Dose Retest to Confirm Inhibitors of Cancer Stem Cells. [Related pubchem assays (depositor defined):AID2717, AID2721]. The format is functional. To be noted: Homo sapiens.
The nature of a further test: cells. The format is functional.

Broadly, the IC50 is the midpoint of a concentration-inhibition curve. What is called EC50 is the midpoint of the concentration-response curve. For orientation: AC50 means the concentration giving half of the maximal activity seen.

Active and inactive are the calls of the source. Where only a bound is given, the exact number is not on record here.

Sequence of Ion channel NompC (Q7T1G6 whole entry): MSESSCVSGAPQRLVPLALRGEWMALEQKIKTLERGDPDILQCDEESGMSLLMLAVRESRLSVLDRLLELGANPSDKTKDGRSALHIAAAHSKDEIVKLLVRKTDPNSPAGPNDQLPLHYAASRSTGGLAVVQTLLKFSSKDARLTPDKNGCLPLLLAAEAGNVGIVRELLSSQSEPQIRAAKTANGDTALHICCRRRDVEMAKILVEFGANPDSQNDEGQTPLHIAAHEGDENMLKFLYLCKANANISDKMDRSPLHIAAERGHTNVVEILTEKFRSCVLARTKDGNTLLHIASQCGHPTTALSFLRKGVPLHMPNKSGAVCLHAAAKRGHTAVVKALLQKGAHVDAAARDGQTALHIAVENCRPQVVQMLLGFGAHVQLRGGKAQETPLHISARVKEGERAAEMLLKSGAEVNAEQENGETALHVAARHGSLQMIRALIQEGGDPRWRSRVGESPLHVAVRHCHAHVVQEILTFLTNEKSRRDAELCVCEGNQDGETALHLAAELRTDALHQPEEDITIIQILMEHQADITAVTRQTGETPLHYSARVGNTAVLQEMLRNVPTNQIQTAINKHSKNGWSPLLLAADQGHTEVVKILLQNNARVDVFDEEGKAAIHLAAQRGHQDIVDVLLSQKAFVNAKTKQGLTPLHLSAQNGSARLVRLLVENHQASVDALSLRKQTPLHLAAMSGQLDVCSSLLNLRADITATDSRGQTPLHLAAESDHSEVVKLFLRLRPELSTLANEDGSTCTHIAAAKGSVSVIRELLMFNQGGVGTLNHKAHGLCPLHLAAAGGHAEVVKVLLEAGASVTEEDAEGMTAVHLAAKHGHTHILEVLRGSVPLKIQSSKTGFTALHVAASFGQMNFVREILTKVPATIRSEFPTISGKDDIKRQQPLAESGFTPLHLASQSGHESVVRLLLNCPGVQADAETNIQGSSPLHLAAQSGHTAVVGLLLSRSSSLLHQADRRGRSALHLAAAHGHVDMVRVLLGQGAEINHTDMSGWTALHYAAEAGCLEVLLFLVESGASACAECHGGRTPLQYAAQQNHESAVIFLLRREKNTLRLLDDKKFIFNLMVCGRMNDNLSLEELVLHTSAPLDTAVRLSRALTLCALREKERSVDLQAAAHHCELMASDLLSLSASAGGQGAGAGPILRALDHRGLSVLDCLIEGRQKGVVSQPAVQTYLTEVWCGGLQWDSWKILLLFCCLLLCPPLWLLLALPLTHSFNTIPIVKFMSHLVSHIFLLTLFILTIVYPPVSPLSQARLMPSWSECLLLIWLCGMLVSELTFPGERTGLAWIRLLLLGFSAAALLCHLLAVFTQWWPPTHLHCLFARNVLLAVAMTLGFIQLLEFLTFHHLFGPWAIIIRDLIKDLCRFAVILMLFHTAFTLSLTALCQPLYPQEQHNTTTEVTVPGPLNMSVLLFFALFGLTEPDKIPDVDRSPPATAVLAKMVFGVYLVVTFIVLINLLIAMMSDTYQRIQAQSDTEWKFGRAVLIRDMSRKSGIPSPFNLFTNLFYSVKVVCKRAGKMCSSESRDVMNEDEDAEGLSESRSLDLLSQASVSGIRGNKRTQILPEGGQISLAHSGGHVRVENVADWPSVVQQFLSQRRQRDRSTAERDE
Sequence of Large T antigen (P03070 whole entry): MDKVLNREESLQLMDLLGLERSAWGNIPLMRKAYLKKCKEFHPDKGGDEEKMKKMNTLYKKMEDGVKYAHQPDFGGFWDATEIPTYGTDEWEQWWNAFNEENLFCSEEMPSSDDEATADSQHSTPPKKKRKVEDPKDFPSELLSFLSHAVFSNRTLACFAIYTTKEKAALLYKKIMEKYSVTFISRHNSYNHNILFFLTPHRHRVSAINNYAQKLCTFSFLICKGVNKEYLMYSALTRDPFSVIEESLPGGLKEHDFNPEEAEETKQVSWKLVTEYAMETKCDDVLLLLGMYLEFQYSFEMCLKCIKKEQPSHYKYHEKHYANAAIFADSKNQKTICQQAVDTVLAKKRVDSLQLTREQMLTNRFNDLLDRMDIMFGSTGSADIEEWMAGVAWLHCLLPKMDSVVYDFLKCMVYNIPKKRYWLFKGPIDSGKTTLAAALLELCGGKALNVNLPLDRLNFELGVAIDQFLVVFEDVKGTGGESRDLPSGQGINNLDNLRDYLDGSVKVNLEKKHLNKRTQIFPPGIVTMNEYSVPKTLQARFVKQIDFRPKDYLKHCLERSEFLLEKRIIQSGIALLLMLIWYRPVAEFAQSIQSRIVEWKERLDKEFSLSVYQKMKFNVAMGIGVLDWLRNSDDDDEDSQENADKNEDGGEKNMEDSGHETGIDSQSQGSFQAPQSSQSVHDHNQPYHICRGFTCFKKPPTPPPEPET
Sequence of Induced myeloid leukemia cell differentiation protein Mcl-1 (Q07820 whole entry): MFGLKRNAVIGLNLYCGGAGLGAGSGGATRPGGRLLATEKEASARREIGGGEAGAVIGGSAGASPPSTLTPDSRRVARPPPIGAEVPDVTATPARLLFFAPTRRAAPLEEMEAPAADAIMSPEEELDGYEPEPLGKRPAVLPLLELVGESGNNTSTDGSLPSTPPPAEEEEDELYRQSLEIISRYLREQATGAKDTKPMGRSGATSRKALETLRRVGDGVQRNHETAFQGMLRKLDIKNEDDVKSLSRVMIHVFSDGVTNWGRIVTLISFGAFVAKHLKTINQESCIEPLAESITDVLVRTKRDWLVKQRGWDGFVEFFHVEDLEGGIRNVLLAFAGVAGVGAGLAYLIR
Sequence of Paired box protein Pax-8 (Q06710 whole entry, the tested form may be a part): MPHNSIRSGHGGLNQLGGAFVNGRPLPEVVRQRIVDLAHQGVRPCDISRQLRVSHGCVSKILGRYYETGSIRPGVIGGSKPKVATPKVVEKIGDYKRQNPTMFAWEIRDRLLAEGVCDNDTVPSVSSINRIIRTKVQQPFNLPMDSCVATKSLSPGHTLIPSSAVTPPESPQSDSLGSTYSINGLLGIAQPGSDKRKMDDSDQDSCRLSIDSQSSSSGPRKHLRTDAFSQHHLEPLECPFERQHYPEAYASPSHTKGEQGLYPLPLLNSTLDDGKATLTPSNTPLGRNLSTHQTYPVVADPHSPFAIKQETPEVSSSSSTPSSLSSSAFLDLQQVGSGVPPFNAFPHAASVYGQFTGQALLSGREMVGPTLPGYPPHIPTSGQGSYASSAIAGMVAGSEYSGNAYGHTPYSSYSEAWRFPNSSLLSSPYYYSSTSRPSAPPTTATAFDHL
Sequence of Genome polyprotein (P29990 2492-3391 limits assumed): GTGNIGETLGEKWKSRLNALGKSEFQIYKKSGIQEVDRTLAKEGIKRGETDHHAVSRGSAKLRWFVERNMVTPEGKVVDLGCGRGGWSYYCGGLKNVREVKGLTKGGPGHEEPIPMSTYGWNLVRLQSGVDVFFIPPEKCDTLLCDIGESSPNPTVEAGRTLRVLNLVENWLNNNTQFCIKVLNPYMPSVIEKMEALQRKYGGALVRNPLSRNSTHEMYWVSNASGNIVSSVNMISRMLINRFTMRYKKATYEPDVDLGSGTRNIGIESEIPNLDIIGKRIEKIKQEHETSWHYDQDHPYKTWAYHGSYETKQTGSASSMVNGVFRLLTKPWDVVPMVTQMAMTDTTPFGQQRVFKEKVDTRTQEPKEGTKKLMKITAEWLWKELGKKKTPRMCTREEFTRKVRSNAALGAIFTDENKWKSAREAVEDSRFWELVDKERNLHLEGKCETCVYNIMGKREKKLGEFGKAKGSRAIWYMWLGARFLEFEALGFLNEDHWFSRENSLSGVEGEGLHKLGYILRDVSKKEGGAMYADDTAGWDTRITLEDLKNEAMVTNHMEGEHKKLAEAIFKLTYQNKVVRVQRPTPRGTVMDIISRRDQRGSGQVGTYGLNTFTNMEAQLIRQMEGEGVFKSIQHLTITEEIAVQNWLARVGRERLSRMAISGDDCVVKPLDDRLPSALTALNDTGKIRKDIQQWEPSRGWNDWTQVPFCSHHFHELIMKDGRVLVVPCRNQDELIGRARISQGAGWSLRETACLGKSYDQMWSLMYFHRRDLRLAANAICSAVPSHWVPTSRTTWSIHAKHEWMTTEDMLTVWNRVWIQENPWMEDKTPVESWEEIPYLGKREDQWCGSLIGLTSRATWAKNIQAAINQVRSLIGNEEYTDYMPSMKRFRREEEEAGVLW

Take `O=C1NN(c2ccccc2)C(=O)/C1=C/c1ccc(-c2ccc(Cl)c(C(=O)O)c2)o1`: the IC50 is 17.1 µM (active) on Large T antigen, 80.4 µM (active) in test [1], 32.2 µM (active) on Genome polyprotein and 4.07 µM (active) in [2].

With `CCC1CCCCN1S(=O)(=O)c1ccccc1[N+](=O)[O-]` (stereo not drawn), the EC50 on Mucolipin-3 was 6.06 µM (active); at Ion channel NompC it was > 29.9 µM (not active).

For the molecule `CCOc1cccc(-c2nnc3sc(-c4cc(OC)c(OC)c(OC)c4)nn23)c1`, the IC50 on Estrogen receptor is > 50 µM (not active).

`Cn1cnc([N+](=O)[O-])c1Sc1ncnc2[nH]cnc12` [AZATHIOPRINE]: the EC50 is > 150 µM (not active) in the test with BJ [3]; 5.04 µM (inconclusive) in the test with BJ [4]; > 150 µM (not active) in the test on BJ [5]; 2.9 µM (active) in [6]; > 133 µM (inactive) with BJ [7]. The IC50 in test [8] is > 10 µM (inactive); in [9], 2.66 µM (active); in test [10], 0.207 µM (active); in test [11] it was > 20 µM (inactive); in test [12], > 10 µM (inactive); in test [13] it was > 20 µM (inactive). In addition, the values for the IC50 in [14] and in test [15] were 0.364 µM (active) and 0.623 µM (active), respectively.

Regarding `COc1ccccc1C#Cc1ccc2c(c1)O[C@H](CN(C)Cc1ccncc1)[C@@H](C)CN([C@@H](C)CO)S2(=O)=O`, the AC50 is 38.1 µM (active) in test [16]; 10.9 µM (active) at Paired box protein Pax-8; 25.9 µM (active) in test [17]; 57.8 µM (active) in test [18]; 61.5 µM (active) in test [19].

As for `Cc1sc(N)nc1-c1ccccc1`, the IC50 in test [20] is > 100 µM (active).

For `CCC1CCCCN1S(=O)(=O)c1ccc(S(=O)(=O)N(Cc2ccccn2)CC2CCCO2)cc1` (stereo not drawn), the EC50 on Mucolipin-3 was 1.81 µM (active); on Ion channel NompC it was > 29.9 µM (not active). Also, the IC50 in test [21] is < 0.4 µM (not active). The AC50 in test [22] is 2.4 µM (active).

Consider `Cc1ccc(OCC(=O)N/N=C\c2ccc(-c3cccc(C(=O)O)c3)o2)c(C)c1`, for which, in [1], the IC50 was 137 µM (active).

Regarding `CCCCCCCCCCCCNCCNCCNCC(=O)O` [DODICIN], the IC50 in test [8] and in test [12] was > 10 µM (inactive) throughout.

For the molecule `O/N=C/c1ccc2ccccc2c1`, the IC50 in [20] is > 100 µM (active).

In the case of `O=S(=O)(NC1CCCCCC1)c1cccc2cccnc12`, the EC50 on Mucolipin-3 is 3.4 µM (active); on Ion channel NompC, > 29.9 µM (not active).

On to `CCOC(=O)c1ccc(-n2c(CCC(=O)O)ccc2-c2cccs2)cc1`, for which the IC50 in test [20] is > 100 µM (active); in the test “cells”, 36.2 µM (active).

Source of the values: ChEMBL document CHEMBL1201862, “PubChem BioAssay data set” (2004).
